This note sets out measurements from US20240315994A1, “SMALL MOLECULE MODULATORS OF FERROPTOSIS” (ARPEGGIO BIOSCIENCES, INC., priority 2021, published 2024).

A word on the pIC50: it is −log10 of the IC50, conventionally taken in molar units. The low end stands for a large IC50, the high end for a small IC50.

pIC50: −log10 of the molar value. Where only a bound is given, the exact number is not on record here.

One series deals with HT1080 cells (ATCC, cat #CCL-121). The experiment in a line: HT1080 CellTiter-Glo 2.0 IC50 assay of working examples. Format: cell-based. Conditions: HT-1080, 24 hrs, cells plated with and without 1.5 μM ferrostatin-1, table does not say which, Table 7. On the procedure:
Biological evaluation of working examples A1-A47 and B1-B28 was performed in HT1080 cells (ATCC, cat #CCL-121) according to the procedure provided below.
• 1.1 Cells were harvested from flask into cell culture medium and then the cell number count was determined. • 1.2 The cells were suspended with 1.5 μM ferrostatin-1 and without ferrostatin-1. • 1.3 Cells were plated at a density of 1,500 cells per well in a 384-well black sided clear bottom plate, in 25 μL, using electronic multichannel pipette. • 1.4 Plates were covered with lid and spun for 1 min at 1000 rpm, then allowed to incubate overnight at 37° C. under 5% CO2.
• 2.1 Compounds were dissolved at 10 mM stock solution and 10 μl of diluted solution was transferred to a 384 LDV-plate (LABCYTE, LP-0200). A 3 fold, 11-point dilution was performed. • 2.2 Cells were treated with compounds by plate reformat Echo software and spun for 1 min at 1000 rpm. Then incubated at 37° C. for 24 hrs in a CO2 incubator.
• 3.1 The plates were removed from the incubator and allowed to equilibrate to room temperature, at least 30 minutes. • 3.2 CellTiter-Glo® 2.0 Reagent (Promega, G9242) was added (25 μL) to the assay plates and spun for 1 min at 1000 rpm. Then allowed to stand for about 20 minutes before reading luminescence signal on Envision. • 3.3 The IC50 calculations were determined with a nonlinear fit, variable slope (four parameters) log(inhibitor) vs. response model using GraphPad PRISM.
In turn, `COc1cc(Cl)cc(N(Cc2ccc(F)cc2)C(=O)CCl)c1` [Compound A14, 2-chloro-N-(3-chloro-5-methoxy-phenyl)-N-[(4-fluorophenyl)methyl]acetamide] gave a pIC50 of 6.00 to 7.00.

Molecule `Cc1cc(C)cc(N(Cc2cccc(Cl)c2)C(=O)CCl)c1` [Compound A9, 2-chloro-N-[(3-chlorophenyl)methyl]-N-(3,5-dimethylphenyl)acetamide] had a negative logarithm of the IC50 (pIC50) of 7.00 to 8.00.

Take `COc1c(C)cc(N(Cc2ccc(F)cc2)C(=O)CCl)cc1C` [Compound A40, 2-chloro-N-[(4-fluorophenyl)methyl]-N-(4-methoxy-3,5-dimethyl-phenyl)acetamide]: the pIC50 is 7.00 to 8.00.

Take `O=C(CCl)N(Cc1ccc(F)cc1)C1CCCCC1` [Compound A12, 2-chloro-N-cyclohexyl-N-[(4-fluorophenyl)methyl]acetamide]: the negative-log IC50 (pIC50) was 6.00 to 7.00.

Take `COc1cc(OC)cc(N(Cc2cccc(C(F)(F)F)c2F)C(=O)CCl)c1` [Compound A31, 2-chloro-N-(3,5-dimethoxyphenyl)-N-[[2-fluoro-3-(trifluoro-methyl)phenyl]methyl]acetamide]: the pIC50 is 7.00 to 8.00.

As to `COc1cc(OC)cc(N(Cc2cccc3nsnc23)C(=O)CCl)c1` [Compound A45, N-(2,1,3-benzothiadiazol-4-ylmethyl)-2-chloro-N-(3,5-dimethoxyphenyl)acetamide], the pIC50 is 7.00 to 8.00.

In turn, `COc1ccccc1CN(C(=O)CCl)c1cc(C)cc(C)c1` [Compound A7, 2-chloro-N-(3,5-dimethylphenyl)-N-[(2-methoxyphenyl)methyl]acetamide] showed a pIC50 of 7.00 to 8.00.

Consider `COc1ccc(N(Cc2ccc(F)cc2)C(=O)CCl)cc1Cl` [Compound A17, 2-chloro-N-(3-chloro-4-methoxy-phenyl)-N-[(4-fluorophenyl)methyl]acetamide], for which the pIC50 was 6.00 to 7.00.

`COc1cccc(F)c1N(Cc1ccc(F)cc1)C(=O)CCl` [Compound A32, 2-chloro-N-(2-fluoro-6-methoxy-phenyl)-N-[(4-fluorophenyl)methyl]acetamide] showed a pIC50 of 5.00 to 6.00.

In turn, `Cc1c(Cl)ccc(N(Cc2ccc(F)cc2)C(=O)CCl)c1Cl` [Compound A42, 2-chloro-N-(2,4-dichloro-3-methyl-phenyl)-N-[(4-fluorophenyl)methyl]acetamide] had a negative-log IC50 (pIC50) of 6.00 to 7.00.

Consider `Cc1cccc(CN(C(=O)CCl)c2cc(C)cc(C)c2)c1` [Compound A8, 2-chloro-N-(3,5-dimethylphenyl)-N-(m-tolylmethyl)acetamide], for which the negative-log IC50 (pIC50) was 7.00 to 8.00.

Consider `Cc1ccc(N(Cc2ccc(F)cc2)C(=O)CCl)cn1` [Compound A47, 2-chloro-N-[(4-fluorophenyl)methyl]-N-(6-methyl-3-pyridyl)acetamide], for which the pIC50 is less than 5.00.

Consider `Cc1cc(C)cc(N(Cc2ccc(Cl)cc2)C(=O)CCl)c1` [Compound A4, 2-chloro-N-[(4-chlorophenyl)methyl]-N-(3,5-dimethylphenyl)acetamide], for which the pIC50 was 6.00 to 7.00.

Regarding `COc1cc(OC)cc(N(Cc2ccc(F)c(F)c2Cl)C(=O)CCl)c1` [Compound A43, 2-chloro-N-[(2-chloro-3,4-difluoro-phenyl)methyl]-N-(3,5-dimethoxyphenyl)acetamide], the pIC50 was not below 8.00.

`COc1ccc(Cl)c(N(Cc2ccc(F)cc2)C(=O)CCl)c1` [Compound A37, 2-chloro-N-(2-chloro-5-methoxy-phenyl)-N-[(4-fluorophenyl)methyl]acetamide] had a negative logarithm of the IC50 (pIC50) of 6.00 to 7.00.

Consider `COc1ccc(CN(C(=O)CCl)c2cc(C)cc(C)c2)cc1` [Compound A2, 2-chloro-N-(3,5-dimethylphenyl)-N-[(4-methoxyphenyl)methyl]acetamide], for which the pIC50 was 7.00 to 8.00.

On to `COc1ccc(CN(C(=O)CCl)c2cc(OC)cc(OC)c2)cc1` [Compound A21, 2-chloro-N-(3,5-dimethoxyphenyl)-N-[(4-methoxyphenyl)methyl]acetamide], for which the negative-log IC50 (pIC50) is 7.00 to 8.00.

As for `O=C(CCl)N(Cc1ccc(F)cc1)c1cc(F)cc(F)c1` [Compound A15, 2-chloro-N-(3,5-difluorophenyl)-N-[(4-fluorophenyl)methyl]acetamide], the negative logarithm of the IC50 (pIC50) is 5.00 to 6.00.

For `COc1cccc(CN(C(=O)CCl)c2cc(C)cc(C)c2)c1` [Compound A5, 2-chloro-N-(3,5-dimethylphenyl)-N-[(3-methoxyphenyl)methyl]acetamide], the negative logarithm of the IC50 (pIC50) was 7.00 to 8.00.

With `Cc1cc(C)cc(N(Cc2ccccc2C)C(=O)CCl)c1` [Compound A11, 2-chloro-N-(3,5-dimethylphenyl)-N-(o-tolylmethyl)acetamide], the pIC50 is 6.00 to 7.00.

The molecule `Cc1cc(N(Cc2ccc(F)cc2)C(=O)CCl)cc(C)c1O` [Compound A41, 2-chloro-N-[(4-fluorophenyl)methyl]-N-(4-hydroxy-3,5-dimethyl-phenyl)acetamide] gave a negative logarithm of the IC50 (pIC50) of less than 5.00.

`O=C(CCl)N(Cc1ccc(F)cc1)c1ccc2ncccc2c1` [Compound A22, 2-chloro-N-[(4-fluorophenyl)methyl]-N-(6-quinolyl)acetamide] had a pIC50 of 6.00 to 7.00.

In the case of `COc1cccc(N(Cc2ccc(F)cc2)C(=O)CCl)c1` [Compound A13, 2-chloro-N-[(4-fluorophenyl)methyl]-N-(3-methoxyphenyl)acetamide], the negative-log IC50 (pIC50) is 6.00 to 7.00.

In turn, `COc1cc(N(Cc2ccc(F)cc2)C(=O)CCl)ccn1` [Compound A46, 2-chloro-N-[(4-fluorophenyl)methyl]-N-(2-methoxy-4-pyridyl)acetamide] gave a negative logarithm of the IC50 (pIC50) of 6.00 to 7.00.

Staying with this series, now noted: HT-1080, 24 hrs, cells plated with and without 1.5 μM ferrostatin-1, table does not say which, Table 8.
`COCCCN(C(=O)CCl)c1nc(-c2ccc(OC)cc2)cs1` [Compound B3, 2-chloro-N-[4-(4-methoxyphenyl)thiazol-2-yl]-N-(3-methoxypropyl)acetamide] had a negative-log IC50 (pIC50) of 5.00 to 6.00.

Molecule `Cc1cc(C)cc(N(C(=O)C2CO2)c2nc(-c3ccc(Br)cc3)cs2)c1` (centres unmarked) [Compound B28, N-[4-(4-bromophenyl)thiazol-2-yl]-N-(3,5-dimethylphenyl)oxirane-2-carboxamide] had a pIC50 of less than 5.00.

With `COc1cc(Cl)cc(N(C(=O)CCl)c2nc(-c3ccc(Br)cc3)cs2)c1` [Compound B24, N-[4-(4-bromophenyl)thiazol-2-yl]-2-chloro-N-(3-chloro-5-methoxy-phenyl)acetamide], the negative logarithm of the IC50 (pIC50) is 6.00 to 7.00.

Consider `C=C(F)C(=O)N(c1cc(C)cc(C)c1)c1nc(-c2ccc(Br)cc2)cs1` [Compound B23, N-[4-(4-bromophenyl)thiazol-2-yl]-N-(3,5-dimethylphenyl)-2-fluoro-prop-2-enamide], for which the pIC50 was less than 5.00.

Regarding `CC#CC(=O)N(c1cc(C)cc(C)c1)c1nc(-c2ccc(Br)cc2)cs1` [Compound B8, N-[4-(4-bromophenyl)thiazol-2-yl]-N-(3,5-dimethylphenyl)but-2-ynamide], the pIC50 is less than 5.00.

In the case of `Cc1cccc(N(C(=O)CCl)c2nc(-c3ccc(Br)cc3)cs2)c1` [Compound B16, N-[4-(4-bromophenyl)thiazol-2-yl]-2-chloro-N-(m-tolyl)acetamide], the pIC50 is less than 5.00.

In turn, `O=C(CCl)N(c1cc(Cl)cc(Cl)c1)c1nc(-c2ccc(Br)cc2)cs1` [Compound B20, N-[4-(4-bromophenyl)thiazol-2-yl]-2-chloro-N-(3,5-dichlorophenyl)acetamide] gave a negative-log IC50 (pIC50) of 5.00 to 6.00.

In the case of `O=C(CCl)N(c1ccccc1)c1nc(-c2ccc(Br)cc2)cs1` [Compound B15, N-[4-(4-bromophenyl)thiazol-2-yl]-2-chloro-N-phenyl-acetamide], the pIC50 is less than 5.00.

Consider `Cc1cc(C)cc(N(C(=O)CI)c2nc(-c3ccc(Br)cc3)cs2)c1` [Compound B21, N-[4-(4-bromophenyl)thiazol-2-yl]-N-(3,5-dimethylphenyl)-2-iodo-acetamide], for which the negative logarithm of the IC50 (pIC50) was 7.00 to 8.00.

In a further series the test system is HT-1080 fibrosarcoma cells. The experiment in a line: HT-1080 single-concentration cell viability screen (Cell Titer Glo). Format: cell-based. Particulars: 10 μM compound, 48 hours, duplicate, fraction of control. The text has this: To identify potential covalent inhibitors of GPX4, we screened a panel of 294 diverse small molecules from the Enamine covalent inhibitor library (Catalog No. CSL-10480-0-Z-10, Enamine, Monmouth, NJ). Each compound contains either a chloroacetamide or acrylamide moiety theoretically capable of forming a covalent bond with a selenocysteine. The small molecule compounds were selected for a diversity of backbone structures. The screening protocol used the cell viability assay Cell Titer Glo® (available from Promega, Madison, WI). Cell Titer Glo® is a luminescent cell viability that determines the number of viable cells in culture by quantifying ATP, which indicates the presence of metabolically active cells. Briefly, HT-1080 fibrosarcoma cells were plated 24 hours prior to treatment with 10 µM of each compound in the screening panel. Cell Titer Glo® was used to read out cell viability after 48 hours of compound exposure. Data was collected in duplicate.
To determine whether similar molecules could offer other starting points for a medicinal chemistry campaign, we screened 95 additional compounds that contain a similar base structure to that of 8216. Briefly, HT-1080 fibrosarcoma cells were treated with 10 µM of a compound for 48 hours and cell viability was measured by Cell Titer Glo®. Data was collected in duplicate. […]
(In general: ATP-based viability assays read luminescence as a measure of living cells.)
`O=C(CCl)N(Cc1cccs1)CC1CCCO1` (centres unmarked) [Compound Z147647920]: the “Average relative cell viability” value came out at 0.04392.

For the molecule `O=C(CCl)N(CC1=CCCOC1)Cc1ccccc1` [Compound Z3952175509], the “Average relative cell viability” value is 0.03047.

For the molecule `O=C(CCl)N(Cc1ccccc1)c1nc(-c2ccc(F)cc2)cs1` [Compound Z56946047], the “Average relative cell viability” value worked out at 0.000624.

Regarding `O=C(CCl)N(Cc1ccco1)C1CCS(=O)(=O)C1` (centres unmarked) [Compound Z147652330], the “Average relative cell viability” value is recorded as 0.7459.

As to `Cc1nn(C)c(C)c1CN(C(=O)CCl)C1CCCCC1C` (centres unmarked) [Compound Z4323324870], the “Average relative cell viability” value came to 0.488.
